# Source: patent publication US9944607B2, “Thiohydantoin derivatives and uses thereof” (Whitehead Institute for Biomedical Research, priority 2012, dated 2018)
# Read-outs that look alike come from different tables or passages of the source.
# Columns and labels:
# [1] = system: Saccharomyces cerevisiae W303; experiment: Secondary S. cerevisiae inhibition in glycerol media (OD600); format: cell-based; settings: for IC50: Saccharomyces cerevisiae
# Description: (§1) Cell Lines. • Candida albicans CaCi-2; a drug-resistant clinical isolate was provided by the Whitehead Institute (Redding et al., Clin. Infect. Dis. 1994, 18(2):240-2). This strain was used for the primary assay. • Candida albicans CaCi-17; a strongly drug-resistant clinical isolate was provided by the Whitehead Institute (Redding et al., Clin. Infect. Dis. 1994, 18(2):240-2). This strain was used for the primary assay • Saccharyomyces cerevisiae W303-1a (ATCC 208352); a well-characterized Saccharomyces strain used for determination of glycolytic vs. respiratory metabolism, as well as in the mitochondrial disruption assay. • Candida glabrata (ATCC 2001); used for determination of glycolytic vs. respiratory metabolism. • NIH-3T3 mammalian fibroblasts (ATCC; CRL no.1658); used for mammalian toxicity assays. […]
# (§2) Saccharomyces, while not a major human pathogen, is a useful lab model with well-developed genetic tools available. Candida glabrata is an increasingly prominent clinical problem for immune-compromised patients but with fewer genetic tools available with which to study it. These organisms can utilize alternative metabolic pathways to support growth and survival depending on the carbon source. By comparing the concentration-dependent inhibition of yeast growth in glycerol relative to glucose media, a quantitative assessment of a compound's ability to disrupt respiration can be determined. […].
# (§3) Clear, flat bottom, black 384-well plates (Corning Catalog no. 3712BC; Lot no. 35808016); Amphotericin B (Sigma Catalog no. A2411) 15 mM stock solution in DMSO; Pen/Strep (Gibco Catalog no. 10378-016; Lot no21040170) 100× in PBS.
# (§4) Synthetic defined growth medium. Complete Supplement Mixture; (Sunrise Science, Catalog No. 1001-100); Yeast Nitrogen Base without ammonium sulfate (MP Biomedicals, Catalog No. 4027-012); Glycerol (Sigma Catalog No. G-9012). • Prepare medium by dissolving 0.79 g Complete Supplement Mixture and 1.7 g Yeast Nitrogen Base in 800 mL water. • Add 20 mL of glycerol. Adjust final volume to 1000 mL. Filter sterilize.
# (§5) Fungal Inoculum. Test Strains: C. glabrata (ATCC 2001) and Saccharomyces cerevisiae W303. • Inoculate 100 μL of yeast from cryopreserved stock into 250 mL shaker flask containing 20 mL growth medium. Shake at 30° C. overnight (about 16 hours). • Read OD 600 of 1 mL of fungal culture in a cuvette using a standard optical density reader (Eppendorf BioPhotometer Plus), with growth medium as a background blank. • Dilute to desired volume of fungal inoculum to produce an OD600 reading of 0.005 (S. cerevisiae) or 0.004 (C. glabrata).
# (§6) Procedures • Use a Thermo Combi nL to dispense 20 μL/well of assay media into all wells. • Add 2 μL of Amphotericin B to control wells. • Pin 100 nL of test compound from compound plates into assay plates using a CyBi-Well pin tool. • Dispense 20 μL/well of culture into the assay media in all wells. • Incubate the plates in a humidified (90% humidity) Liconic incubator at 37° C. without agitation for 48 hours. • Shake plates briefly. • Read OD600 of wells on a standard plate reader as measure of relative fungal growth. Envision (Perkin Elmer) plate reader settings: Ex Photometric 600, Top read. Secondary Glucose Assay Protocol (AID 623971, 623967, 624013, 624025) Materials and Reagents
# [2] = system: Candida albicans strain SC5314; experiment: Colony counts over time, C. albicans SC5314 in RPMI (FIG. 14); format: cell-based; settings: colonies counted after 24 and 48 hours
# Description: Compound I-B-4 (ML316) was studied in fluconazole-sensitive Candida albicans strain SC5314. The SC5314 strain was inoculated into RPMI media at 10^3 CFU/mL in the presence or absence of 5 μM I-B-4 (ML316) and 32 ug/mL fluconazole. Colonies were plated from the cultures after 24 and 48 hours and counted.
# C. glabrata (ATCC 2001) = experiment: Secondary C. glabrata inhibition in glycerol media (OD600); format: cell-based, Candida glabrata; settings: for IC50: Nakaseomyces glabratus
# Description: as §1, §2, §3, §4, §5, §6
# Candida albicans CaCi-2 [3] = experiment: Colony counts over time, C. albicans CaCi-2 in RPMI (FIG. 15); format: cell-based; settings: colonies counted after 24 and 48 hours
# Description: […] The CaCi-2 strain was inoculated into RPMI media at 10^3 CFU/mL in the presence or absence of 5 μM I-B-4 (ML316) and 32 ug/mL fluconazole. Colonies were plated from the cultures after 24 and 48 hours and counted.
# PBS stability = format: physicochemical; settings: PBS pH 7.4, 23° C.
# Description: Stability was determined in the presence of PBS pH 7.4 with 0.1% DMSO. […] One plate was removed at each time point (0, 2, 4, 8, 24, and 48 hours). […] Additionally, to the remaining material at each time point, acetonitrile was added to force dissolution of compound (to test for recovery of compound). An aliquot of this was also analyzed by UPLC-MS.
# Candida albicans CaCi-2 [4] = experiment: Broth microdilution growth inhibition of C. albicans CaCi-2 in presence or absence of fluconazole; format: cell-based; settings: CACI2, RPMI media
# Description: Growth inhibition of I-B-4 (ML316) against Candida albicans CaCi-2 in the presence or absence of fluconazole was assessed using the broth microdilution method with RPMI media.
# HeLa cells = settings: Hayakawa et al. 1971, cited from earlier work
# [5] = target: S. cerevisiae cytochrome bc1 complex (Saccharomyces cerevisiae, UniProt P00163); settings: cited from earlier work
# bovine bc1 complex = bovine bc1 complex (Bos taurus, UniProt P00157); settings: read-out: IC50, isolated bovine bc1 complex; studies by Trumpower et al.; cited from earlier work
# [6] = 5 μM I-B-4 and 32 ug/mL fluconazole
compound,measurement,setting,value
"CCOC(=O)N1C(=O)C2(CCCCC2)N(c2ccc(F)cc2)C1=S [CID 56604860, Ethyl 1-(4-fluorophenyl)-4-oxo-2-thioxo-1,3-diazaspiro[4.5]decane-3-carboxylate]","Reduction in potency when glucose is available instead of glycerol, S. cerevisiae",[1],greater than 250 fold
same,IC50,"[1]; W303, read-out: Growth inhibition of S. cerevisiae on glycerol IC50",0.004 µM
same,"Fold Selective (Glucose IC50/Glycerol IC50), S. cerevisiae",[1]; Table 13,>750x
same,"Cytotoxicity to fluconazole-sensitive C. albicans SC5314, compound alone",[2]; 5 μM I-B-4,cytotoxic
same,"Cytotoxicity to fluconazole-sensitive C. albicans SC5314, combination with fluconazole (FCZ)",[2]; [6],cytotoxic
same,"Reduction in potency when glucose is available instead of glycerol, C. glabrata",C. glabrata (ATCC 2001),greater than 250 fold
same,IC50,"C. glabrata (ATCC 2001); ATCC2001, read-out: Growth inhibition of C. glabrata on glycerol IC50",0.011 µM
same,"Fold Selective (Glucose IC50/Glycerol IC50), C. glabrata",C. glabrata (ATCC 2001); Table 13,>272x
same,"Cytotoxicity to fluconazole-resistant C. albicans CaCi-2, compound alone",Candida albicans CaCi-2 [3]; 5 μM I-B-4,cytotoxic
same,"Cytotoxicity to fluconazole-resistant C. albicans CaCi-2, combination with fluconazole (FCZ)",Candida albicans CaCi-2 [3]; [6],cytotoxic
same,"Stability in PBS solution, % remaining after a 48-hour incubation",PBS stability,> 60%
same,IC50,"Candida albicans CaCi-2 [4]; absence of fluconazole (FIG. 8), read-out: IC50 against C. albicans CaCi-2 growth, compound alone",120 nM
same,IC50,"Candida albicans CaCi-2 [4]; presence of fluconazole (FIG. 8), read-out: IC50 against C. albicans CaCi-2 growth, with FCZ",10 nM
CCOC(=O)N1C(=O)C2(CCCCC2)N(c2ccc(C)cc2)C1=S [compound 3889161],IC50,"[1]; W303, 48 h, read-out: Growth Inhibition Activity, IC50 (μM), S. cerevisiae (n = 3) On glycerol",0.011 µM
same,IC50,"C. glabrata (ATCC 2001); ATCC2001, 48 h, read-out: Growth Inhibition Activity, IC50 (μM), C. glabrata (n = 3) On glycerol",0.041 µM
CCOC(=O)N1C(=O)C2(CCCCC2)N(c2cccc(C)c2)C1=S [compound 56604823],IC50,"[1]; W303, Table 8, n = 3, glycerol media, 48 hours, tested up to 3 μM, read-out: Growth Inhibition Activity, IC50 (μM), S. cerevisiae (n = 3) On glycerol",0.019 µM
same,IC50,"C. glabrata (ATCC 2001); ATCC2001, Table 8, n = 3, glycerol media, 48 hours, tested up to 3 μM, read-out: Growth Inhibition Activity, IC50 (μM), C. glabrata (n = 3) On glycerol",0.034 µM
"C/C=C/C1[C@H]2C[C@@H](C)CC[C@@H]2C(C)=C[C@H]1C(=O)c1c(O)c(-c2ccc(O)cc2)c[nH]c1=O (stereo partly drawn) [ilicicolin H, reference compound]",IC50,"[1]; W303, figure legends and Tables 9, 10, 13, AID 623969, read-out: Growth inhibition of S. cerevisiae on glycerol IC50",0.03 µM
same,MIC against HeLa cells,HeLa cells,2 µg/mL
same,MIC against HeLa cells,HeLa cells; same value converted,4.6 µM
same,Selectivity for S. cerevisiae (fungal) bc1 complex over bovine bc1 complex,"[5]; biochemical assays with purified proteins, literature",100 fold
same,IC50,"[5]; read-out: IC50, purified S. cerevisiae cytochrome bc1 complex, studies by Trumpower et al.",3 nM
same,IC50,"C. glabrata (ATCC 2001); ATCC2001, figure legends and Tables 9, 10, 13, AID 623965, read-out: Growth inhibition of C. glabrata on glycerol IC50",2.6 µM
same,IC50,bovine bc1 complex,200 nM
